One compound from EPA's ToxValDB 9.5 (doi:10.2903/j.efsa.2009.186r) can be followed below.

One series has as its system Canidae. As to conditions: chronic; duration: 1 years; oral; Dog Other; clinical signs.
The next series relates to Daphnia magna. As to conditions: chronic/long-term; duration: 21 days; reproduction.
A further series has as its system Tagia sp. As to conditions: acute; duration: 14 days; mortality.
For a further series, the system named is Aphidius rhopalosiphi. Particulars: not reported; mortality.
For the next series, the system named is Colinus virginianus. As to conditions: for LD50: acute, oral, mortality.
For the next series, the system named is Mus musculus. As to conditions: acute; oral; mortality.
The subject of a further series is Anas platyrhynchos. Particulars: acute; oral; unspecified; mortality.
A further series relates to Apis mellifera. As to conditions: acute; duration: 48 hours; oral; unspecified; mortality.
The next series deals with Bibionidae. Particulars: chronic/long-term; duration: 28 days.

The structures appear in SMILES notation. Converted amounts (≈) assume the structure as drawn.

A word on the NOAEL: it is the highest tested level that showed no adverse finding.

Consider `Cc1c(COC(=O)[C@@H]2[C@H](/C=C(\Cl)C(F)(F)F)C2(C)C)cccc1-c1ccccc1` [Bifenthrin], for which the no-observed-adverse-effect level (NOAEL) in the series on Canidae is 1.5 mg/kg-day; with Rattus norvegicus (developmental, development), > 2 mg/kg-day; in the series on Rattus norvegicus (reproduction developmental, reproduction), 3 mg/kg-day; in the series with Rattus norvegicus (subchronic, duration: 90 days, oral, neurology), 2.9 mg/kg-day. The NOEC was found to be 9.5e-07 mg/L in the series with Daphnia magna; 1.2e-05 mg/L in the series with Oncorhynchus mykiss (chronic/long-term, duration: 30 days, other); 75 mg/kg-day with Colinus virginianus (reproduction developmental); 0.00032 mg/L in the series on Bibionidae. Besides, the LC50 in the series with Oncorhynchus mykiss (acute, duration: 96 hours, mortality) is 0.1 ng/mL (≈ 0.236 nM); in the series with Tagia sp. it was > 16 mg/kg. The LEL with Aphidius rhopalosiphi is 60 g/ha. The LD50 was 569 mg/kg-day in the series with Colinus virginianus (diet); 1800 mg/kg in the series on Colinus virginianus; 42.5 mg/kg in the series on Mus musculus; > 2150 mg/kg with Anas platyrhynchos; 0.1 µg/piece with Apis mellifera.
